Results from patent US9695132B2, “Heteroaryl compounds and uses thereof” (Celgene CAR LLC, priority 2013, dated 2017).
Where two headings read alike, the source gives them in different places.

Biological target: FGFR4-WT (Homo sapiens (Human), UniProt P22455)
Assay: Omnia assay for potency assessment against FGFR4 enzyme
Type: biochemical
Protocol: A 10× stock solution of FGFR4-WT (PR4380C), (from Invitrogen, Carlsbad, Calif.) corresponding to method a in Table 7, was prepared as described below. Alternatively, a 10× stock solution of FGFR4-WT (F01-11G), (SignalChem, Richmond, BC) corresponding to method b in Table 7, was prepared as described below. A solution of 1.4×ATP (AS001A) and 5× Tyr-Sox conjugated peptide substrate (KNZ3101) were prepared in 1× kinase reaction buffer consisting of 20 mM Tris, pH 7.5, 5 mM MgCl2, 1 mM EGTA, 5 mM β-glycerophosphate, 5% glycerol (10× stock, KB002A) and 0.2 mM DTT (DS001A). […] The serially diluted compounds were prepared on a Tecan EVO100. A second addition of 10 μl of Tyr-Sox FGFR4 substrate was added to each well and the kinase reactions were started with the addition of 35 μL of 1.4×ATP. The reactions were monitored every 71 seconds for 240 minutes at λex360/λem485 in a Synergy plate reader from BioTek (Winooski, Vt.).

[1] = method a: [FGFR4-WT]=10 nM (Invitrogen), [ATP]=300 uM, [Y10-Sox]=10 uM
[2] = method b: [FGFR4-WT]=2.5 nM (SignalChem), [ATP]=250 uM, [Y10-Sox]=10 uM

FGFR4-WT, sequence (P22455 22-802): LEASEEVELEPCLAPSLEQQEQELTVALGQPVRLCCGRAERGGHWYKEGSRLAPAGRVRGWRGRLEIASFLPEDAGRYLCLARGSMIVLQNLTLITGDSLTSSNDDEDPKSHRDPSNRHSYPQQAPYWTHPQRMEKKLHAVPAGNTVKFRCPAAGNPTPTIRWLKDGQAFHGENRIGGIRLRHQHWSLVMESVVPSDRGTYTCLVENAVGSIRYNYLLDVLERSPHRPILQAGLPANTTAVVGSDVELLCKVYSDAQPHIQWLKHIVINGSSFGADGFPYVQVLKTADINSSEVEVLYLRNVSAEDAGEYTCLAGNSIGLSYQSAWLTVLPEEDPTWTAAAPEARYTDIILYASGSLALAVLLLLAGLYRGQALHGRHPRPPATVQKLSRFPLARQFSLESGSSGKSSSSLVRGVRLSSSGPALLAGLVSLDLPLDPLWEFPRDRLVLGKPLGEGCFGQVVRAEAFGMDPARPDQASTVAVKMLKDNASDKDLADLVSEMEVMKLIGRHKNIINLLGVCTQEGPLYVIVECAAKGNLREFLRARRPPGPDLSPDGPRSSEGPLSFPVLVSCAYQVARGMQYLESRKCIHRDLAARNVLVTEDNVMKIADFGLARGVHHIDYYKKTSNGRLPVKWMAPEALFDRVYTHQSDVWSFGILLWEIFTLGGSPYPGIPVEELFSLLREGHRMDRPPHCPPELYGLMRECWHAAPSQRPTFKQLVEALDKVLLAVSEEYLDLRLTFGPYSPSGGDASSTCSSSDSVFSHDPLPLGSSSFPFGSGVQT

| Compound | IC50 [1] [nM] | further results |
| --- | --- | --- |
| C=CC(=O)N(C)c1ccccc1Nc1ncc2c(n1)N(C)C(=O)N(c1c(Cl)c(OC)cc(OC)c1Cl)C2 [Compound I-29] | 101 to 500 |  |
| C=CC(=O)N[C@H]1CCCC[C@H]1Nc1ncc2c(n1)N(C)C(=O)N(c1ccc(OC)cc1)C2 [Compound I-222] | > 1000 |  |
| CCC(=O)Nc1ccccc1Nc1ncc2c(n1)N(C)C(=O)N(c1c(Cl)c(OC)cc(OC)c1Cl)C2 [Compound I-235] |  | IC50 [2]: 101 to 500 nM |
| C=CC(=O)Nc1cc(N2CCN(CC)CC2)ccc1Nc1ncc2c(n1)N(C)C(=O)N(c1cc(OC)cc(OC)c1)C2 [Compound I-15] |  | IC50 [2]: < 100 nM |
| C=CC(=O)Nc1cc(OCCOC)ccc1Nc1ncc2c(n1)N(Cc1ccccc1)C(=O)N(c1cc(OC)cc(OC)c1)C2 [Compound I-14] |  | IC50 [2]: < 100 nM |
| C=CC(=O)Nc1ccccc1Nc1ncc2c(n1)N(Cc1cccc(C#N)c1)C(=O)N(c1cc(OC)cc(OC)c1)C2 [Compound I-90] | < 100 |  |
| C=CC(=O)Nc1ccccc1Nc1ncc2c(n1)N(C1CC1)C(=O)N(c1c(Cl)c(OC)cc(OC)c1Cl)C2 [Compound I-23] |  | IC50 [2]: < 100 nM |
| C=CC(=O)Nc1ccccc1Nc1ncc2c(n1)N(CC(=O)OC(C)(C)C)C(=O)N(c1cc(OC)cc(OC)c1)C2 [Compound I-96] | > 1000 |  |
| C=CC(=O)Nc1ccccc1Nc1ncc2c(n1)N(C)C(=O)N(c1c(Cl)c(OC)cc(OC)c1Cl)C2 [Compound I-2] |  | IC50 [2]: < 100 nM |
| C=CCN1C(=O)N(c2cc(OC)cc(OC)c2)Cc2cnc(Nc3ccccc3NC(=O)C=C)nc21 [Compound I-32] | < 100 |  |
| C=CC(=O)Nc1cc(C(=O)NC2CCN(C)CC2)ccc1Nc1ncc2c(n1)N(C)C(=O)N(c1c(Cl)c(OC)cc(OC)c1Cl)C2 [Compound I-150] | < 100 |  |
| C=CC(=O)Nc1cc(CN2CCN(CC)CC2)ccc1Nc1ncc2c(n1)N(C)C(=O)N(c1cc(OC)cc(OC)c1)C2 [Compound I-122] | 101 to 500 |  |
| C=CC(=O)Nc1ccccc1Nc1ncc2c(n1)N(CCC(O)CO)C(=O)N(c1cc(OC)cc(OC)c1)C2 (stereo not drawn) [Compound I-58] | < 100 |  |
| C=CC(=O)NC1CN(c2ccccn2)CC1Nc1ncc2c(n1)N(C)C(=O)N(c1c(Cl)c(OC)cc(OC)c1Cl)C2 (stereo not drawn) [Compound I-202] | < 100 |  |
| C=CCCN1C(=O)N(c2cc(OC)cc(OC)c2)Cc2cnc(Nc3ccccc3NC(=O)C=C)nc21 [Compound I-57] | < 100 |  |
| C=CC(=O)Nc1ccccc1Nc1ncc2c(n1)N(Cc1ccc(Cl)c(OC)c1)C(=O)N(c1c(Cl)c(OC)cc(OC)c1Cl)C2 [Compound I-24] |  | IC50 [2]: < 100 nM |
| C=CC(=O)Nc1cc(C(F)(F)F)ccc1Nc1ncc2c(n1)N(Cc1ccccc1)C(=O)N(c1c(Cl)c(OC)cc(OC)c1Cl)C2 [Compound I-10] |  | IC50 [2]: > 1000 nM |
| C=CC(=O)NC1CNC(=O)CC1Nc1ncc2c(n1)N(C)C(=O)N(c1c(Cl)c(OC)cc(OC)c1Cl)C2 (stereo not drawn) [Compound I-196] | < 100 |  |
| C=CC(=O)Nc1ccccc1Nc1ncc2c(n1)N(CC1CC1)C(=O)N(c1c(Cl)c(OC)cc(OC)c1Cl)C2 [Compound I-130] | < 100 |  |
| C=CC(=O)Nc1cc(N2CCN(C(=O)CCC(=O)O)CC2)ccc1Nc1ncc2c(n1)N(C)C(=O)N(c1c(Cl)c(OC)cc(OC)c1Cl)C2 [Compound I-123] | < 100 |  |

| Compound | IC50 [1] [nM] | further results |
| --- | --- | --- |
| C=CC(=O)Nc1ccccc1Nc1ncc2c(n1)N(C)C(=O)N(C1CC1)C2 [Compound I-51] | > 1000 |  |
| C=CC(=O)Nc1ccccc1Nc1ncc2c(n1)N(Cc1ccc(F)c(N)c1)C(=O)N(c1c(Cl)c(OC)cc(OC)c1Cl)C2 [Compound I-144] | < 100 |  |
| C=CC(=O)Nc1cc(Cl)c(Cl)cc1Nc1ncc2c(n1)N(Cc1ccccc1)C(=O)N(c1c(Cl)c(OC)cc(OC)c1Cl)C2 [Compound I-11] |  | IC50 [2]: 501 to 999 nM |
| C=CC(=O)NC1CCCCC1Nc1ncc2c(n1)NC(=O)N(c1c(Cl)c(OC)cc(OC)c1Cl)C2 (racemic) [Compound I-73] | 101 to 500 |  |
| C=CC(=O)Nc1ccccc1Nc1ncc2c(n1)N(CC1CC1)C(=O)N(c1cc(OC)cc(OC)c1F)C2 [Compound I-109] | < 100 |  |
| C=CC(=O)Nc1cc(N2CCOCC2)ccc1Nc1ncc2c(n1)N(C)C(=O)N(c1cc(OC)cc(OC)c1)C2 [Compound I-17] | < 100 |  |
| C=CC(=O)Nc1ccccc1Oc1ncc2c(n1)N(C)C(=O)N(c1c(Cl)c(OC)cc(OC)c1Cl)C2 [Compound I-65] | < 100 |  |
| C=CC(=O)Nc1ccccc1Nc1ncc2c(n1)N(CC(F)F)C(=O)N(c1c(Cl)c(OC)cc(OC)c1Cl)C2 [Compound I-103] | < 100 |  |
| C=CC(=O)Nc1ccccc1Nc1ncc2c(n1)N(CC1CCNCC1)C(=O)N(c1cc(OC)cc(OC)c1)C2 [Compound I-40] | < 100 |  |
| C=CC(=O)Nc1cc(-c2cnn(C)c2)ccc1Nc1ncc2c(n1)N(C)C(=O)N(c1c(Cl)c(OC)cc(OC)c1Cl)C2 [Compound I-141] | < 100 |  |
| C=CC(=O)Nc1ccccc1Nc1ncc2c(n1)N(CC1CCN(C(=O)OC(C)(C)C)CC1)C(=O)N(c1cc(OC)cc(OC)c1)C2 [Compound I-60] | < 100 |  |
| C=CC(=O)Nc1cc(-c2nccs2)ccc1Nc1ncc2c(n1)N(C)C(=O)N(c1cc(OC)cc(OC)c1)C2 [Compound I-84] | 501 to 999 |  |
| C=CC(=O)N[C@H]1CCCC[C@H]1Nc1ncc2c(n1)N(Cc1cn[nH]c1)C(=O)N(c1c(Cl)c(OC)cc(OC)c1Cl)C2 [Compound I-152] | < 100 |  |
| C=CS(=O)(=O)Nc1ccccc1Nc1ncc2c(n1)N(C)C(=O)N(c1cc(OC)cc(OC)c1)C2 [Compound I-67] | < 100 |  |
| C=CC(=O)NCc1ccccc1Nc1ncc2c(n1)N(C)C(=O)N(c1c(Cl)c(OC)cc(OC)c1Cl)C2 [Compound I-181] |  | IC50 [2]: < 100 nM |
| C=CC(=O)NC1CCCCC1Nc1ncc2c(n1)N(CC1CC1)C(=O)N(c1cc(OC)cc(OC)c1Cl)C2 (stereo not drawn) [Compound I-101] | 101 to 500 |  |
| C=CC(=O)N[C@H]1CCCC[C@H]1Nc1ncc2c(n1)N(Cc1ccccc1)C(=O)N(c1c(Cl)c(OC)cc(OC)c1Cl)C2 [Compound I-82] |  | IC50: < 100 nM |
| C=CC(=O)Nc1ccccc1Nc1ncc2c(n1)N(Cc1csc(C)n1)C(=O)N(c1c(Cl)c(OC)cc(OC)c1Cl)C2 [Compound I-134] | < 100 |  |
| C=CC(=O)Nc1ccc(N2CCN(CC)CC2)cc1Nc1ncc2c(n1)N(C)C(=O)N(c1cc(OC)cc(OC)c1)C2 [Compound I-30] | < 100 |  |
| C=CC(=O)Nc1ccccc1Nc1ncc2c(n1)N(CC)C(=O)N(CC)C2 [Compound I-120] | > 1000 |  |

| Compound | IC50 [1] [nM] | further results |
| --- | --- | --- |
| C=CC(=O)Nc1cc(C2=CCN(CC)CC2)ccc1Nc1ncc2c(n1)N(C)C(=O)N(c1cc(OC)cc(OC)c1)C2 [Compound I-56] | < 100 |  |
| C=CC(=O)Nc1cc(C2CCN(CC)CC2)ccc1Nc1ncc2c(n1)N(C)C(=O)N(c1cc(OC)cc(OC)c1)C2 [Compound I-54] | < 100 |  |
| C=CC(=O)Nc1ccc(C)cc1Nc1ncc2c(n1)N(C)C(=O)N(c1cc(OC)cc(OC)c1)C2 [Compound I-49] | < 100 |  |
| C=CC(=O)Nc1ccccc1Nc1ncc2c(n1)N(C)C(=O)N(c1cc(OC)cc(OC)c1Cl)C2 [Compound I-75] | < 100 |  |
| C=CC(=O)N[C@H]1CCCC[C@H]1Nc1ncc2c(n1)N(Cc1ccn(C)n1)C(=O)N(c1c(Cl)c(OC)cc(OC)c1Cl)C2 [Compound I-147] | < 100 |  |
| C=CC(=O)Nc1ccccc1Nc1ncc2c(n1)N(C1CC1)C(=O)N(c1cc(OC)cc(OC)c1)C2 [Compound I-34] | < 100 |  |
| C=CC(=O)Nc1ccccc1Nc1ncc2c(n1)N(C)C(=O)N(c1ccccc1)C2 [Compound I-38] | 501 to 999 |  |
| C=CC(=O)Nc1cc(N2CCCCC2)ccc1Nc1ncc2c(n1)N(C)C(=O)N(c1cc(OC)cc(OC)c1)C2 [Compound I-31] | < 100 |  |
| C=CC(=O)Nc1ccccc1Nc1ncc2c(n1)N(C)C(=O)N(C1CCCCC1)C2 [Compound I-52] | 501 to 999 |  |
| C=CC(=O)N[C@@H]1CCCC[C@@H]1Nc1ncc2c(n1)N(Cc1ccccc1)C(=O)N(c1c(Cl)c(OC)cc(OC)c1Cl)C2 [Compound I-66] | > 1000 |  |
| C=CC(=O)Nc1ccccc1Nc1ncc2c(n1)N(Cc1nccs1)C(=O)N(c1c(Cl)c(OC)cc(OC)c1Cl)C2 [Compound I-91] | < 100 |  |
| C=CC(=O)Nc1ccc(-c2cnn(C)c2)cc1Nc1ncc2c(n1)N(C)C(=O)N(c1cc(OC)cc(OC)c1)C2 [Compound I-27] | < 100 |  |
| C=CC(=O)Nc1cc(-c2cnn(C)c2)ccc1Nc1ncc2c(n1)N(C)C(=O)N(c1cc(OC)cc(OC)c1)C2 [Compound I-77] | < 100 |  |
| C=CC(=O)Nc1ccccc1Nc1ncc2c(n1)N(Cc1ccn(C)n1)C(=O)N(c1c(Cl)c(OC)cc(OC)c1Cl)C2 [Compound I-136] | < 100 |  |
| COc1cc(OC)cc(N2Cc3cnc(Nc4ccccc4)nc3N(C)C2=O)c1 [Compound I-237] | 101 to 500 |  |
| C=CC(=O)Nc1ccc(-c2cnn(C)c2)cc1Nc1ncc2c(n1)N(C)C(=O)N(c1c(Cl)c(OC)cc(OC)c1Cl)C2 [Compound I-74] | < 100 |  |
| C=CC(=O)Nc1ccccc1Nc1ncc2c(n1)N(Cc1ccnc(N)c1)C(=O)N(c1c(Cl)c(OC)cc(OC)c1Cl)C2 [Compound I-135] | < 100 |  |
| C=CC(=O)Nc1cc(-c2nnn(C)n2)ccc1Nc1ncc2c(n1)N(C)C(=O)N(c1c(Cl)c(OC)cc(OC)c1Cl)C2 [Compound I-145] | < 100 |  |
| C=CC(=O)Nc1ccc(-c2nccs2)cc1Nc1ncc2c(n1)N(C)C(=O)N(c1cc(OC)cc(OC)c1)C2 [Compound I-78] | < 100 |  |
| C=CC(=O)Nc1ccccc1Nc1ncc2c(n1)N(C)C(=O)N(c1cc(OC)cc(OC)c1F)C2 [Compound I-108] | < 100 |  |
